The record followed here is ChEMBL document CHEMBL4715762, “Discovery of anabaenopeptin 679 from freshwater algal bloom material: Insights into the structure-activity relationship of anabaenopeptin protease inhibitors” (Bioorg Med Chem Lett, 2016).

Each structure is given as a SMILES string. pIC50: −log10 of the molar value. Active and inactive are the calls of the source. The rule behind the calls is not given here. Starred links: 1 amine or outer side, 2 acyl side, 3 side chain; linkers in the order of their positions; H or OH if unused. Positions of bridges follow the written chain, without caps; N, C: chain ends. Non-standard residues stand in square brackets, D forms with d. Residues, ends and D or L forms follow the SMILES beside them. NMehTyr = CN[C@@H](CCc1ccc(O)cc1)C(=O)O; X1 = NC(=O)N[C@H](CCCCN[*:1])C(=O)[*:2]; hTyr = N[C@@H](CCc1ccc(O)cc1)C(=O)O; NMeA = CN[C@@H](C)C(=O)O; CO = O=C([*:1])[*:2]

The target of experiment [1] is T1, Carboxypeptidase A1 (Homo sapiens, UniProt P15085).
T1 sequence (P15085 whole entry): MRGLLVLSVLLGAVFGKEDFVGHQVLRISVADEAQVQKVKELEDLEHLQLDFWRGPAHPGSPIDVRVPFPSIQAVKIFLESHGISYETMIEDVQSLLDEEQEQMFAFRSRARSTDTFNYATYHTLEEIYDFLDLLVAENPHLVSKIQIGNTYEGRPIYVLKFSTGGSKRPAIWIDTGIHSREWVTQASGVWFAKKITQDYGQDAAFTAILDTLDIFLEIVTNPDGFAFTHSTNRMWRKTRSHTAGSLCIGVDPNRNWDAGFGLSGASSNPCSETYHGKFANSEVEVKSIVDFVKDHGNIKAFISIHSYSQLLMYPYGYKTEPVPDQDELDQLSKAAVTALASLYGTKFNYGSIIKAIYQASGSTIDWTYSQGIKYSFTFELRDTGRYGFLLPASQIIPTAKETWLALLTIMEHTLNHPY
The experiment is described as follows: Inhibition of carboxypeptidase A (unknown origin) assessed as reduction in degradation of N-(4-methoxyphenylazoformyl)-Phe-OH using N-(4-methoxyphenylazoformyl)-Phe-OH as substrate.

For experiment [2], the target named is T2, Carboxypeptidase A1 (Homo sapiens) (UniProt P15085).
T2 sequence (whole entry): T1 sequence (P15085 whole entry)
Put plainly: Inhibition of carboxypeptidase A (unknown origin) assessed as reduction in degradation of N-(4-methoxyphenylazoformyl)-Phe-OH at > 10 uM using N-(4-methoxyphenylazoformyl)-Phe-OH as substrate. Particulars: dose microM >10.

The target in experiment [3] is T1, Carboxypeptidase A1. The experiment is described as follows: Inhibition of carboxypeptidase A (unknown origin).
For experiment [4], the target named is T1, Carboxypeptidase A1. The experiment is described as follows: Inhibition of carboxypeptidase A (unknown origin) assessed as reduction in hydrolysis of hippuryl-L-phenylalanine using hippuryl-L-phenylalanine as substrate.
Experiment [5] concerns the target T3, Carboxypeptidase A1 (Bos taurus, UniProt P00730).
T3 sequence (P00730 whole entry): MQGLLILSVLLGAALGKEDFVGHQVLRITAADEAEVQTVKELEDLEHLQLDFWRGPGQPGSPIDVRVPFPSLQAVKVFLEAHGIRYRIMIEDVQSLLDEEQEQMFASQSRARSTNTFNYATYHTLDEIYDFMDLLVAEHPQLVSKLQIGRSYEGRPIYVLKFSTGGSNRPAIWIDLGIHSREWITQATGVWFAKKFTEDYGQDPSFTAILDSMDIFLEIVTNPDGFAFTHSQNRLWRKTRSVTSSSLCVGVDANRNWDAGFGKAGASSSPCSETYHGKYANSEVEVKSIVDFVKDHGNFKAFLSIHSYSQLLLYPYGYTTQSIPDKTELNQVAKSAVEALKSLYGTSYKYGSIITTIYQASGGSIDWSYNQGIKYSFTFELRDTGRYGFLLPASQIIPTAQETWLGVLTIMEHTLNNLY
Put plainly: Inhibition of carboxypeptidase A in bovine pancreas assessed as reduction in hydrolysis of hippuryl-L-phenylalanine using hippuryl-L-phenylalanine as substrate measured after 2 hrs. In kind it is tissue-based.

In the case of `CC(C)[C@@H]1NC(=O)[C@H](NC(N)=O)CCCCNC(=O)[C@H](Cc2ccccc2)NC(=O)[C@H](C)N(C)C(=O)[C@H](CCc2ccc(O)cc2)NC1=O` (cyclo(F[X1]V[hTyr][NMeA])), the pIC50 in experiment [1] was 5.17.
In the case of `CC[C@H](C)[C@@H]1NC(=O)[C@H](CCc2ccc(O)cc2)N(C)C(=O)[C@H](CCc2ccc(O)cc2)NC(=O)[C@H](C(C)C)NC(=O)[C@H](NC(=O)N[C@@H](CCCNC(=N)N)C(=O)O)CCCCNC1=O` [ANABAENOPEPTIN 908] ({Arg-CO}-[dK]V[hTyr][NMehTyr]I; lactam 1-C), the pIC50 in experiment [1] was under 4.96; in experiment [3] it was under 4.66. Moreover, the inhibition result in experiment [2] is “Active”.
For `CC(C)[C@@H]1NC(=O)[C@H](NC(=O)N[C@@H](CCCNC(=N)N)C(=O)O)CCCCNC(=O)[C@H](Cc2ccccc2)NC(=O)[C@H](C)N(C)C(=O)[C@H](CCc2ccc(O)cc2)NC1=O` [ANABAENOPEPTIN B] ({Arg-CO}-[dK]V[hTyr][NMeA]F; lactam 1-C), in experiment [1], the negative-log IC50 (pIC50) was under 4.62.
On the same count and under the same terms, in the case of `CC[C@H](C)[C@@H]1NC(=O)[C@H](NC(=O)N[C@@H](CCCNC(=N)N)C(=O)O)CCCCNC(=O)[C@H](Cc2ccccc2)NC(=O)[C@H](C)N(C)C(=O)[C@H](CCc2ccc(O)cc2)NC1=O` [ANABAENOPEPTIN F] ({Arg-CO}-[dK]I[hTyr][NMeA]F; lactam 1-C) it was under 4.62.
In the case of `CC[C@H](C)[C@@H]1NC(=O)[C@H](NC(=O)N[C@@H](Cc2ccc(O)cc2)C(=O)O)CCCCNC(=O)[C@H]([C@@H](C)CC)NC(=O)[C@H](CCc2ccc(O)cc2)N(C)C(=O)[C@H](CCc2ccc(O)cc2)NC1=O` [ANABAENOPEPTIN G] ({Tyr-CO}-[dK]I[hTyr][NMehTyr]I; lactam 1-C), the pIC50 in experiment [4] is 8.70.
With `CC[C@H](C)[C@@H]1NC(=O)[C@H](NC(=O)N[C@@H](CCCNC(=N)N)C(=O)O)CCCCNC(=O)[C@H]([C@@H](C)CC)NC(=O)[C@H](CCc2ccc(O)cc2)N(C)C(=O)[C@H](CCc2ccc(O)cc2)NC1=O` [ANABAENOPEPTIN H] ({Arg-CO}-[dK]I[hTyr][NMehTyr]I; lactam 1-C), the negative logarithm of the IC50 (pIC50) in experiment [1] was 4.99.
Consider `CC[C@H](C)[C@H](NC(=O)N[C@@H]1CCCCNC(=O)[C@H]([C@@H](C)CC)NC(=O)[C@H](CCc2ccc(O)cc2)N(C)C(=O)[C@H](CCc2ccc(O)cc2)NC(=O)[C@H](C(C)C)NC1=O)C(=O)O` [ANABAENOPEPTIN T] ({Ile-CO}-[dK]V[hTyr][NMehTyr]I; lactam 1-C), for which, in experiment [5], the negative logarithm of the IC50 (pIC50) was 5.64.

Broadly, the pIC50 is the negative decadic logarithm of the IC50, by convention in mol/L.
